Assays:
Details in all cases: incubation time: 72 h
[1] = tested on: HDQ-P1; experiment: drug sensitivity score (DSS), CellTox Green (DSS (AUC-based score)); higher = stronger drug effect (viability inhibition or cytotoxicity); extreme values may be limits of the assay
Method in brief: (§1)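 Each compound occupied 5 concentrations in 10-fold steps over its own 10,000-fold range in 384-well plates, into which breast cancer cell lines were seeded as 20 µl suspension. Following 72 h of incubation, CellTox Green fluorescence (485/520 nm) was measured, and CellTiter-Glo luminescence was measured after 10 min at room temperature. Plates were individually normalised to 0.1 % DMSO and a positive kill control. From the area under the fitted dose-response curve, a drug sensitivity score was calculated.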

[2] = tested on: CAL-85-1; experiment: as above
Method in brief: as §1

[3] = tested on: HCC1599; experiment: as above
Method in brief: as §1

[4] = tested on: HCC1143; experiment: as above
Method in brief: as §1

[5] = tested on: MDA-MB-436; experiment: as above
Method in brief: as §1

[6] = tested on: MCF-10A; experiment: as above
Method in brief: as §1

[7] = tested on: MDA-MB-453; experiment: as above
Method in brief: as §1

[8] = tested on: HDQ-P1; experiment: normalised response (% of control), CellTox Green; higher = less cell death (100 = DMSO, 0 = benzethonium chloride kill control)
Method in brief: (§2)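 Normalised signals at single concentrations make up the values. They come from breast cancer cell lines seeded (20 µl suspension) into 384-well plates with compound at 5 concentrations in 10-fold steps over a compound-specific 10,000-fold range, incubated 72 h, and read for CellTox Green fluorescence then CellTiter-Glo luminescence. Each plate was normalised to 0.1 % DMSO (100) and a positive kill control (0).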

[9] = tested on: MFM-223; experiment: as above
Method in brief: as §2

[10] = tested on: DU-4475; experiment: as above
Method in brief: as §2

[11] = tested on: CAL-51; experiment: as above
Method in brief: as §2

[12] = tested on: BT-474; experiment: as above
Method in brief: as §2

[13] = tested on: MDA-MB-468; experiment: as above
Method in brief: as §2

[14] = tested on: CAL-85-1; experiment: as above
Method in brief: as §2

[15] = tested on: HCC1937; experiment: as above
Method in brief: as §2

[16] = tested on: BT-549; experiment: as above
Method in brief: as §2

[17] = tested on: MDA-MB-231; experiment: as above
Method in brief: as §2

[18] = tested on: HCC1599; experiment: as above
Method in brief: as §2

[19] = tested on: HCC1143; experiment: as above
Method in brief: as §2

[20] = tested on: CAL-148; experiment: as above
Method in brief: as §2

[21] = tested on: Hs578T; experiment: as above
Method in brief: as §2

[22] = tested on: MDA-MB-436; experiment: as above
Method in brief: as §2

[23] = tested on: MCF-10A; experiment: as above
Method in brief: as §2

[24] = tested on: MDA-MB-453; experiment: as above
Method in brief: as §2

[25] = tested on: CAL-120; experiment: as above
Method in brief: as §2

Row | SMILES | drug sensitivity score [1] | drug sensitivity score [2] | drug sensitivity score [3] | drug sensitivity score [4] | drug sensitivity score [5] | drug sensitivity score [6] | drug sensitivity score [7] | normalised response [8] | normalised response [9] | normalised response [10] | normalised response [11] | normalised response [12] | normalised response [13] | normalised response [14] | normalised response [15] | normalised response [16] | normalised response [17] | normalised response [18] | normalised response [19] | normalised response [20] | normalised response [21] | normalised response [22] | normalised response [23] | normalised response [24] | normalised response [25]
1 | COc1cc(Nc2ncc3c(n2)-c2ccc(Cl)cc2C(c2c(F)cccc2OC)=NC3)ccc1C(=O)O [Alisertib] | 0 | 1.48 | 0 | 0 | 0 | 3.47 | 0 |  |  |  |  |  |  |  |  |  |  |  |  |  |  |  |  |  | 
2 | COc1cccc2c1C(=O)c1c(O)c3c(c(O)c1C2=O)C[C@@](O)(C(=O)CO)C[C@@H]3O[C@H]1C[C@H](N)[C@H](O)[C@H](C)O1 [Doxorubicin] (1000 nM) |  |  |  |  |  |  |  | 120% | 68% | 111% | 22.4% | 105% | 363% | 77.5% | 148% | 185% | 160% | 149% | 143% | 66.4% | 159% | 126% | 129% | 130% | 92.7%
3 | Cc1ccc(F)c(NC(=O)Nc2ccc(-c3cccc4[nH]nc(N)c34)cc2)c1 [Linifanib] | 0 | 0 | 0 | 0 | 0 | 0 | 0 |  |  |  |  |  |  |  |  |  |  |  |  |  |  |  |  |  | 
4 | Cc1ccc(F)c(NC(=O)Nc2ccc(-c3cccc4[nH]nc(N)c34)cc2)c1 [Linifanib] (100 nM) |  |  |  |  |  |  |  | 112% | 103% | 107% | 101% | 101% | 66.5% | 96.3% | 117% | 110% | 116% | 106% | 122% | 108% | 66.5% | 66.4% | 107% | 108% | 101%
5 | CC(=O)O[C@]1(C(C)=O)CC[C@H]2[C@@H]3C=C(C)C4=CC(=O)CC[C@]4(C)[C@H]3CC[C@@]21C [Megestrol acetate] | 1.18 | 0 | 0 | 0 | 0 | 0 | 0 |  |  |  |  |  |  |  |  |  |  |  |  |  |  |  |  |  | 
6 | S=c1[nH]cnc2nc[nH]c12 [Mercaptopurine] (1000 nM) |  |  |  |  |  |  |  | 97.3% | 85.8% | 97.6% | 102% | 94.6% | 155% | 104% | 23.3% | 77.2% | 96.1% | 92.1% | 88.2% | 102% | 104% | 100% | 108% | 101% | 104%
7 | S=c1[nH]cnc2nc[nH]c12 [Mercaptopurine] (10000 nM) |  |  |  |  |  |  |  | 102% | 79.1% | 97.8% | 101% | 101% | 185% | 118% | 89.1% | 107% | 95.7% | 102% | 108% | 96.1% | 121% | 93.6% | 83.9% | 91.5% | 101%
8 | Clc1ccc(C(c2ccccc2Cl)C(Cl)Cl)cc1 (stereo not drawn) [Mitotane] | 0 | 0 | 0 | 2.11 | 0 | 0 | 0 |  |  |  |  |  |  |  |  |  |  |  |  |  |  |  |  |  | 
9 | CCN1CCN(c2ccc(Nc3cc(N(C)C(=O)Nc4c(Cl)c(OC)cc(OC)c4Cl)ncn3)cc2)CC1 [NVP-BGJ398] | 0 | 0 | 0 | 0 | 0 | 0 | 0 |  |  |  |  |  |  |  |  |  |  |  |  |  |  |  |  |  | 
10 | COc1cccc2cc(-c3nc([C@H]4CC[C@H](C(=O)O)CC4)n4ncnc(N)c34)[nH]c12 [OSI-027] (10000 nM) |  |  |  |  |  |  |  | 106% | 84% | 99.7% | 94.5% | 94.2% | 86% | 89.2% | 112% | 113% | 130% | 107% | 115% | 72.5% | 130% | 109% | 101% | 103% | 96.9%
11 | OC[C@H]1O[C@@H](n2cnc3c2N=CNC[C@H]3O)C[C@@H]1O [Pentostatin] (1000 nM) |  |  |  |  |  |  |  | 103% | 96% | 103% | 103% | 98.9% | 100% | 106% | 104% | 111% | 116% | 95.5% | 101% | 95.5% | 97.8% | 102% | 108% | 107% | 103%

From the supplement of paper PMC4862054
